Earlier results, collected in patent US20070149443A1, “Methods of treating obesity using enterostatin” (priority 2005, published 2007).

Conditions: administered orally to humans; literature report

enterostatin
did not affect: body weight | energy expenditure | food intake
